For series [1], the target named is Histone deacetylase 2 (Homo sapiens, UniProt Q92769). Kind of series: Inhibition of C-terminal FLAG-tagged full length human recombinant HDAC2 expressed in Sf9 cells by HTRF method. (Time-resolved FRET reads energy transfer from a long-lived donor to a nearby acceptor.)
Series [2] has as its target T1, Protein deacetylase HDAC6 (Homo sapiens, UniProt Q9UBN7).
T1 sequence (Q9UBN7 whole entry): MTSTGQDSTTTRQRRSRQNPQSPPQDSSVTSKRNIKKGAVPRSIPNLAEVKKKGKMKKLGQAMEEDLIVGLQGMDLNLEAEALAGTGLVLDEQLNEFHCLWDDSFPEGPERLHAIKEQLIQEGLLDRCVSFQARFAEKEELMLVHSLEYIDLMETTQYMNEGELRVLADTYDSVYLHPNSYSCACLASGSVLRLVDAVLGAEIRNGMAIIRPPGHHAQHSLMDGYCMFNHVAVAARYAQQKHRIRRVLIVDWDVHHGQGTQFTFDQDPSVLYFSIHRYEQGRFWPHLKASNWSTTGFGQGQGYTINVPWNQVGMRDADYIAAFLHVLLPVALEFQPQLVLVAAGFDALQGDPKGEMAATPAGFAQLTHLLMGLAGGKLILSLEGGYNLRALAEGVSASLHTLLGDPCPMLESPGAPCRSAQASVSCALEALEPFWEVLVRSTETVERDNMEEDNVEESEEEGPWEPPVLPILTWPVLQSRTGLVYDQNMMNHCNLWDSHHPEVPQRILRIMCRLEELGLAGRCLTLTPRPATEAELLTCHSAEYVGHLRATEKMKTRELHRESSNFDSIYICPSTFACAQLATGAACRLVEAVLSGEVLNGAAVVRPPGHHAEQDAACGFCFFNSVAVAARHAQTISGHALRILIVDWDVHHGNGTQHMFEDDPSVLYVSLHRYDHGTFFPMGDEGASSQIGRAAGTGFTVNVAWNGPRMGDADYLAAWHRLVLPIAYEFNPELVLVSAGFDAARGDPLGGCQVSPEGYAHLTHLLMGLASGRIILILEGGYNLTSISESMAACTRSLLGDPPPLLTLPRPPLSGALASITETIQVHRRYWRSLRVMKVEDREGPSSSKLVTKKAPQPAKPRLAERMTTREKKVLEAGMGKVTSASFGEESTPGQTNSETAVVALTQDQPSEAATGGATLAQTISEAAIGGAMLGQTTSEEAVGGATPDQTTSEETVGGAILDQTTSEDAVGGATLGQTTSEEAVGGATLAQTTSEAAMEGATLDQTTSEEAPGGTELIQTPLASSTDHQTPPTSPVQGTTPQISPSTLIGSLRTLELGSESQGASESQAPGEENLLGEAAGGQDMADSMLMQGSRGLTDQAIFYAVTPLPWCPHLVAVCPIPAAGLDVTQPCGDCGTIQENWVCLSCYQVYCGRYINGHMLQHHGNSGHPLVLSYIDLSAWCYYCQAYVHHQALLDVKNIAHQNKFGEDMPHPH
Kind of series: Inhibition of N-terminal FLAG-tagged full length human recombinant HDAC6 expressed in baculovirus.

Series [3] addresses T2, Histone deacetylase 8 (Homo sapiens, UniProt Q9BY41).
T2 sequence (Q9BY41 whole entry): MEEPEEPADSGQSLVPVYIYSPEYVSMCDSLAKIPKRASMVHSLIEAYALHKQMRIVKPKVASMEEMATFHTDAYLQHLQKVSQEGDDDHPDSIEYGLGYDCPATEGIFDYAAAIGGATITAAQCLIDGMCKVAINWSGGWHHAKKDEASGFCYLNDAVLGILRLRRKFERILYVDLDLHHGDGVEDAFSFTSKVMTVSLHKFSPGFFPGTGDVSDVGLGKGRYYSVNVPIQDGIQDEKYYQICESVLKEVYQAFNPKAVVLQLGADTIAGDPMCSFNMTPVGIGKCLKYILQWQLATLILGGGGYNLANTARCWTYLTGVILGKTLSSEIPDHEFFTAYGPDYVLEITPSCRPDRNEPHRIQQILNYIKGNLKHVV
Kind of series: Inhibition of C-terminal FLAG-tagged full length human recombinant HDAC8 expressed in baculovirus.

The target of series [4] is Histone deacetylase 4 (Homo sapiens) (UniProt P56524). Kind of series: Inhibition of human recombinant HDAC4 (645 to 1057 residues) expressed in Escherichia coli.
Series [5] addresses T3, Histone deacetylase 1 (Homo sapiens, UniProt Q13547). Kind of series: Inhibition of C-terminal FLAG-tagged human recombinant HDAC1 expressed in baculovirus by HTRF method.
The target in series [6] is T3, Histone deacetylase 1. Kind of series: Inhibition of HDAC1 (unknown origin).
Series [7] concerns U-251. Kind of series: Antiproliferative activity against human U-251 cells assessed as reduction in cell viability incubated for 24 hrs by MTT assay. It counts as functional, cell-based. The note with it: U-251, 24 h. In general terms: Tetrazolium dyes change colour on reduction, which living cells bring about.
A short description of series [8]: Brain to plasma ratio in rat. The series is classed as ADME. The note with it: read-out: BPR.
The nature of series [9]: Half life in mouse. It counts as ADME, organism-based. To be noted: in vivo.
Series [10] relates to U-87 MG. The series can be described thus: Antiproliferative activity against human U87 cells assessed as reduction in cell viability incubated for 72 hrs by MTT assay.
Series [11] deals with T1, Protein deacetylase HDAC6. Kind of series: Inhibition of human HDAC6.
Series [12] relates to U-87 MG. The series can be described thus: Antiproliferative activity against human U87 cells assessed as reduction in cell growth incubated for 72 hrs by MTT assay. The series is classed as functional, cell-based, U-87MG ATCC.
Series [13] can be described thus: Half life in mouse plasma at 1 uM by LC-MS/MS analysis. It counts as ADME, cell-free.

T3 sequence (Q13547 whole entry): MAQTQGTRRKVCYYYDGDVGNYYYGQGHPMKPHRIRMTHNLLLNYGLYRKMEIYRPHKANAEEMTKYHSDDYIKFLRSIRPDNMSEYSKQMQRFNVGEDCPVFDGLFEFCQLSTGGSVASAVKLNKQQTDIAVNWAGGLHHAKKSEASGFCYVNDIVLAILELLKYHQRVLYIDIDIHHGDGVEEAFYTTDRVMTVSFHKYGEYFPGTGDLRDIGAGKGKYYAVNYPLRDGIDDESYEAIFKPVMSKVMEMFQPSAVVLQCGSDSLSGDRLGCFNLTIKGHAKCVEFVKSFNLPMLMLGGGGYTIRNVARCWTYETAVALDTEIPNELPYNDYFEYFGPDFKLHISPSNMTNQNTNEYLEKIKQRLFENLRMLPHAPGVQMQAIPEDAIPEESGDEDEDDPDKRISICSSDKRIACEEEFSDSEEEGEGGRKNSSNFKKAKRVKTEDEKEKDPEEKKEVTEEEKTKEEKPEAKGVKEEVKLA
Chain of Histone deacetylase 4 (Homo sapiens) (P56524 whole entry, the tested form may be a part): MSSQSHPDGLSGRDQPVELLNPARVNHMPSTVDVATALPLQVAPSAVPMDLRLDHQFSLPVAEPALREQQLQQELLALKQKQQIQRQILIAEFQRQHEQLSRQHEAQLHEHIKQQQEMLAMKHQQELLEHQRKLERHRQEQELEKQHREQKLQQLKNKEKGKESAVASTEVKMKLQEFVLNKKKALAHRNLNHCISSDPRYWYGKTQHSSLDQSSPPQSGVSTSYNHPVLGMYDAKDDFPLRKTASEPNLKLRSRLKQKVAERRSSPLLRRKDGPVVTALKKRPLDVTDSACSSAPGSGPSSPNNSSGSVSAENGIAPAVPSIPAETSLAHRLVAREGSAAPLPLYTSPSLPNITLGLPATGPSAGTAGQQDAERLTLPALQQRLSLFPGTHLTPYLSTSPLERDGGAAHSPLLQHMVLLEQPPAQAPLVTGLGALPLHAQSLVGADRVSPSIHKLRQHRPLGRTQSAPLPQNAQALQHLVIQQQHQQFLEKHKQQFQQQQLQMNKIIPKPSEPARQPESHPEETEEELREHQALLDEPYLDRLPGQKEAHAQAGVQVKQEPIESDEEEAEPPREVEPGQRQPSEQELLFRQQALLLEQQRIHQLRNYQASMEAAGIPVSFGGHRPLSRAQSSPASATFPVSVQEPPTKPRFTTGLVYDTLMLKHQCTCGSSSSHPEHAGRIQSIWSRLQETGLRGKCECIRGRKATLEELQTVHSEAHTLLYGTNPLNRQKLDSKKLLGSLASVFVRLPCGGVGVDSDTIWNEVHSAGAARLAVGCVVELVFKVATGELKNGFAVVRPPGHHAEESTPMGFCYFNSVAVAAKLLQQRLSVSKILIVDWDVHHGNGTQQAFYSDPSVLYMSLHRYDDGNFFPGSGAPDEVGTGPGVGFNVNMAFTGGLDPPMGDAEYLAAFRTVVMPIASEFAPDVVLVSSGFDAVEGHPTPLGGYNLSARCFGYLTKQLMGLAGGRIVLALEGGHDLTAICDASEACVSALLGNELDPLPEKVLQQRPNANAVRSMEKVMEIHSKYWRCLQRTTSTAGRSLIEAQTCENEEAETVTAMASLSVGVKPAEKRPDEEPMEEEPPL
Chain of Histone deacetylase 2 (Q92769 whole entry): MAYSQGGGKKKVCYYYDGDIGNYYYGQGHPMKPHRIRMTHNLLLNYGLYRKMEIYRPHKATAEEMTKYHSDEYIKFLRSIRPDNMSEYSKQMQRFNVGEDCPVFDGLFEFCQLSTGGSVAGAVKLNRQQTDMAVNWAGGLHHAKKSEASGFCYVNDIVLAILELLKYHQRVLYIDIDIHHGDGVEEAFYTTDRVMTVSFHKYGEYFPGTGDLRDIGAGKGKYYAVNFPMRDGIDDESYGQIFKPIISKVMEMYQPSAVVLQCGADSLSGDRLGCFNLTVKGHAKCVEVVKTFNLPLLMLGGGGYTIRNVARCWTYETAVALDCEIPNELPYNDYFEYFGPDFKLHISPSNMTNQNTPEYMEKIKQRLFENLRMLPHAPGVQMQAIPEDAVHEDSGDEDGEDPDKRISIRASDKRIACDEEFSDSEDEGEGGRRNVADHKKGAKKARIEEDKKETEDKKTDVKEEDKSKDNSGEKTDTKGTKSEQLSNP

With `COc1cc(-c2nc(C(=O)NCc3ccc(C(=O)NO)cc3)cc3c2[nH]c2ccccc23)cc(OC)c1OC`, the half-maximal inhibitory concentration (IC50) in series [1] was > 559 nM; in series [2], 3.8 nM; in series [3], > 559 nM; in series [4] it was > 559 nM; in series [5], 8.7 nM.
Consider `O=C(CCCCCCC(=O)Nc1cc(C(F)(F)F)ccc1Cl)NO`, for which the figures for the half-maximal inhibitory concentration (IC50) in [6] and in series [7] were 120 nM and 890 nM, respectively.
`O=C(NO)c1ccc(CN2CCCSc3ccccc32)cc1`: the Kp in series [8] came out at 2.3.
As to `COc1cc(/C=C/C(=O)CC(=O)/C=C/c2ccc(O)c(OC)c2)ccc1O` [CURCUMIN], the t1/2 in [9] stood at 0.287 h. Besides, in series [10], the IC50 came to 31900 nM.
On to `CN1CCC2c3ccccc3N(Cc3ccc(C(=O)NO)cc3)C2C1` (centres undefined), for which the Kp in [8] was determined as 0.18. The same compound gave a half-inhibitory concentration (IC50) in series [11] of 15 nM.
As to `COc1cc(/C=C/C(=O)CC(=O)/C=C/c2ccc(/C=C/C(=O)NO)cc2)ccc1O`, the IC50 in series [12] came out at 2780 nM. This compound also gave a half-life at 1 µM in series [13] of 1.53 h.

The IC50 is the point on the concentration scale where inhibition reaches its midpoint. What is called half-life is how long it takes for the measured level to halve. Lower therefore signals fast loss.

Values taken from ChEMBL document CHEMBL5620411, “Perspectives and new aspects of histone deacetylase inhibitors in the therapy of CNS diseases” (Eur J Med Chem, 2023).
